Data published in ChEMBL document CHEMBL4024727, “Synthesis and antimycobacterial screening of new thiazolyl-oxazole derivatives” (Eur J Med Chem, 2017).
≈ marks a conversion by molar mass, not a printed value.

How the values were obtained:
Type in all cases: functional
Staphylococcus aureus [1] = assay: Growth inhibition of Staphylococcus aureus NCIM 2602 at 30 ug/ml measured after 12 hrs relative to control; conditions: NCIM 2602, 12 h, read-out: GI
Bacillus subtilis [2] = assay: Growth inhibition of Bacillus subtilis NCIM 2162 at 30 ug/ml measured after 12 hrs relative to control; conditions: NCIM 2162, 12 h, read-out: GI
[3] = test system: Mycobacterium tuberculosis; assay: Growth inhibition of Mycobacterium bovis BCG ATCC 35743 at 1 ug/ml by nitrate reductase based two-fold dilution assay relative to control; conditions: BCG str. ATCC 35743, read-out: GI
Staphylococcus aureus [4] = assay: Antibacterial activity against Staphylococcus aureus NCIM 2602 measured after 12 hrs; conditions: NCIM 2602, 12 h
[5] = test system: Mycobacterium tuberculosis; assay: Growth inhibition of Mycobacterium tuberculosis H37Ra ATCC 25177 at 10 ug/ml by XTT dye based two-fold dilution method relative to control; conditions: read-out: GI
Escherichia coli [6] = assay: Growth inhibition of Escherichia coli NCIM 2576 at 10 ug/ml measured after 8 hrs relative to control; conditions: NCIM 2576, 8 h, read-out: GI
Pseudomonas fluorescens [7] = assay: Growth inhibition of Pseudomonas fluorescens NCIM 2059 at 30 ug/ml measured after 8 hrs relative to control; conditions: NCIM 2059, 8 h, read-out: GI
[8] = test system: Mycobacterium tuberculosis; assay: Growth inhibition of Mycobacterium bovis BCG ATCC 35743 at 10 ug/ml by nitrate reductase based two-fold dilution assay relative to control; conditions: BCG str. ATCC 35743, read-out: GI
Pseudomonas fluorescens [9] = assay: Antibacterial activity against Pseudomonas fluorescens NCIM 2059 measured after 8 hrs; conditions: NCIM 2059, 8 h
Escherichia coli [10] = assay: Growth inhibition of Escherichia coli NCIM 2576 at 1 ug/ml measured after 8 hrs relative to control; conditions: NCIM 2576, 8 h, read-out: GI
Escherichia coli [11] = assay: Growth inhibition of Escherichia coli NCIM 2576 at 30 ug/ml measured after 8 hrs relative to control; conditions: NCIM 2576, 8 h, read-out: GI
[12] = test system: Mycobacterium tuberculosis; assay: Growth inhibition of Mycobacterium bovis BCG ATCC 35743 at 30 ug/ml by nitrate reductase based two-fold dilution assay relative to control; conditions: BCG str. ATCC 35743, read-out: GI
[13] = test system: Mycobacterium tuberculosis; assay: Antitubercular activity against Mycobacterium tuberculosis H37Ra ATCC 25177 dormant stage by XTT dye based two-fold dilution method
Bacillus subtilis [14] = assay: Antibacterial activity against Bacillus subtilis NCIM 2162 measured after 12 hrs; conditions: NCIM 2162, 12 h
Bacillus subtilis [15] = assay: Growth inhibition of Bacillus subtilis NCIM 2162 at 10 ug/ml measured after 12 hrs relative to control; conditions: NCIM 2162, 12 h, read-out: GI
[16] = test system: Mycobacterium tuberculosis; assay: Growth inhibition of Mycobacterium tuberculosis H37Ra ATCC 25177 at 3 ug/ml by XTT dye based two-fold dilution method relative to control; conditions: read-out: GI
Staphylococcus aureus [17] = assay: Growth inhibition of Staphylococcus aureus NCIM 2602 at 1 ug/ml measured after 12 hrs relative to control; conditions: NCIM 2602, 12 h, read-out: GI
[18] = test system: Mycobacterium tuberculosis; assay: Antitubercular activity against Mycobacterium bovis BCG ATCC 35743 dormant stage by nitrate reductase based two-fold dilution assay; conditions: BCG str. ATCC 35743
Staphylococcus aureus [19] = assay: Growth inhibition of Staphylococcus aureus NCIM 2602 at 10 ug/ml measured after 12 hrs relative to control; conditions: NCIM 2602, 12 h, read-out: GI
Bacillus subtilis [20] = assay: Growth inhibition of Bacillus subtilis NCIM 2162 at 1 ug/ml measured after 12 hrs relative to control; conditions: NCIM 2162, 12 h, read-out: GI
Pseudomonas fluorescens [21] = assay: Growth inhibition of Pseudomonas fluorescens NCIM 2059 at 1 ug/ml measured after 8 hrs relative to control; conditions: NCIM 2059, 8 h, read-out: GI
Pseudomonas fluorescens [22] = assay: Growth inhibition of Pseudomonas fluorescens NCIM 2059 at 10 ug/ml measured after 8 hrs relative to control; conditions: NCIM 2059, 8 h, read-out: GI
[23] = test system: Mycobacterium tuberculosis; assay: Growth inhibition of Mycobacterium tuberculosis H37Ra ATCC 25177 at 30 ug/ml by XTT dye based two-fold dilution method relative to control; conditions: read-out: GI
Escherichia coli [24] = assay: Antibacterial activity against Escherichia coli NCIM 2576 measured after 8 hrs; conditions: NCIM 2576, 8 h

Structure (SMILES) | inhibition of growth at 30 µg/mL (Staphylococcus aureus [1]) [%] | inhibition of growth at 30 µg/mL (Bacillus subtilis [2]) [%] | inhibition of growth at 1 µg/mL [3] [%] | MIC (Staphylococcus aureus [4]) [µM] | inhibition of growth at 10 µg/mL [5] [%] | inhibition of growth at 10 µg/mL (Escherichia coli [6]) [%] | inhibition of growth at 30 µg/mL (Pseudomonas fluorescens [7]) [%] | inhibition of growth at 10 µg/mL [8] [%] | MIC (Pseudomonas fluorescens [9]) [µM] | inhibition of growth at 1 µg/mL (Escherichia coli [10]) [%] | inhibition of growth at 30 µg/mL (Escherichia coli [11]) [%] | inhibition of growth at 30 µg/mL [12] [%] | MIC (Bacillus subtilis [14]) [µM] | inhibition of growth at 10 µg/mL (Bacillus subtilis [15]) [%] | inhibition of growth at 1 µg/mL (Staphylococcus aureus [17]) [%] | inhibition of growth at 10 µg/mL (Staphylococcus aureus [19]) [%] | inhibition of growth at 1 µg/mL (Bacillus subtilis [20]) [%] | inhibition of growth at 1 µg/mL (Pseudomonas fluorescens [21]) [%] | inhibition of growth at 10 µg/mL (Pseudomonas fluorescens [22]) [%] | MIC (Escherichia coli [24]) [µM] | further results
Cc1ccc(-c2nc(-c3oc(-c4ccccc4)nc3C)cs2)cc1 | 31.5 | 33.4 | 25 | > 100 | 15 | 11.1 | 30.8 | 34 | > 100 | 7.19 | 33.8 | 34 | > 100 | 15.9 | 5.6 | 14.9 | 3.92 | 2.57 | 18.6 | > 100 | IC50 [13]: > 100 µM; MIC90 [13]: > 100 µM; inhibition of growth at 3 µg/mL [16]: 13%; IC50 [18]: > 100 µM; MIC90 [18]: > 100 µM; inhibition of growth at 30 µg/mL [23]: 17%
Cc1ccc(-c2nc(-c3oc(-c4ccc(F)cc4)nc3C)cs2)cc1 | 22.3 | 22 | 3 | > 100 | 3 | 10.5 | 20.6 | 5 | > 100 | 6.65 | 23.7 | 5 | > 100 | 10.7 | 6.75 | 12.8 | 7.61 | 2.41 | 10.4 | > 100 | IC50 [13]: > 100 µM; MIC90 [13]: > 100 µM; IC50 [18]: > 100 µM; MIC90 [18]: > 100 µM; inhibition of growth at 30 µg/mL [23]: 5%
Cc1nc(-c2ccccc2)oc1-c1csc(-c2cccc(Cl)c2)n1 | 69.4 | 69.8 | 26 | > 100 | 14 | 51.8 | 65.8 | 26 | > 100 | 24.9 | 68.2 | 40 | > 100 | 57.3 | 20.5 | 55.6 | 24.8 | 23.5 | 56.2 | > 100 | IC50 [13]: > 100 µM; MIC90 [13]: > 100 µM; inhibition of growth at 3 µg/mL [16]: 12%; IC50 [18]: > 100 µM; MIC90 [18]: > 100 µM; inhibition of growth at 30 µg/mL [23]: 27%
Cc1nc(-c2ccccc2)oc1-c1csc(-c2ccc(F)c(Cl)c2)n1 | 88.5 | 85.6 | 16 | > 100 | 21 | 74.3 | 89.6 | 33 | > 100 | 65 | 88 | 34 | > 100 | 80.8 | 70.9 | 80 | 62 | 69.8 | 77.1 | > 100 | IC50 [13]: > 100 µM; MIC90 [13]: > 100 µM; inhibition of growth at 3 µg/mL [16]: 19%; IC50 [18]: > 100 µM; MIC90 [18]: > 100 µM; inhibition of growth at 30 µg/mL [23]: 30%
Cc1nc(-c2ccccc2)oc1-c1csc(-c2ccc(Cl)cc2)n1 | 48.9 | 45.7 | 30 | > 100 | 45 | 25.3 | 44.9 | 41 | > 100 | 11.1 | 48.9 | 43 | > 100 | 29.2 | 12.8 | 22.3 | 14.9 | 10.5 | 23.7 | > 100 | IC50 [13]: > 100 µM; MIC90 [13]: > 100 µM; inhibition of growth at 3 µg/mL [16]: 38%; IC50 [18]: > 100 µM; MIC90 [18]: > 100 µM; inhibition of growth at 30 µg/mL [23]: 46%
Cc1nc(-c2ccc(F)cc2)oc1-c1csc(-c2ccc(F)cc2)n1 | 67 | 63.8 | 3 | > 100 | 5 | 59 | 63.4 | 6 | > 100 | 43.8 | 62.5 | 20 | > 100 | 55.3 | 43 | 51.4 | 40.5 | 40.6 | 55.3 | > 100 | IC50 [13]: > 100 µM; MIC90 [13]: > 100 µM; IC50 [18]: > 100 µM; MIC90 [18]: > 100 µM; inhibition of growth at 30 µg/mL [23]: 6%
Cc1nc(-c2ccccc2)oc1-c1csc(-c2ccc(F)cc2)n1 | 60.5 | 60.6 | 11 | > 100 | 13 | 47.2 | 61 | 16 | > 100 | 38.4 | 58.5 | 27 | > 100 | 49.4 | 34.6 | 41.7 | 37.7 | 31.8 | 45.1 | > 100 | IC50 [13]: > 100 µM; MIC90 [13]: > 100 µM; inhibition of growth at 3 µg/mL [16]: 8%; IC50 [18]: > 100 µM; MIC90 [18]: > 100 µM; inhibition of growth at 30 µg/mL [23]: 13%
Cc1nc(-c2ccccc2)oc1-c1csc(-c2ccc(Br)cc2)n1 | 85.2 | 88 | 31 | > 100 | 17 | 79.1 | 85.2 | 36 | > 100 | 67.7 | 85.6 | 39 | > 100 | 74.3 | 67.8 | 72.2 | 65 | 64.5 | 74.2 | > 100 | IC50 [13]: > 100 µM; MIC90 [13]: > 100 µM; inhibition of growth at 3 µg/mL [16]: 11%; IC50 [18]: > 100 µM; MIC90 [18]: > 100 µM; inhibition of growth at 30 µg/mL [23]: 33%
CC1(C)S[C@@H]2[C@H](NC(=O)[C@H](N)c3ccccc3)C(=O)N2[C@H]1C(=O)O [AMPICILLIN] | 99.4 | 96.8 |  | 2.86 (≈ 0.999 µg/mL) |  | 97.9 | 98.8 |  | 12.5 (≈ 4.36 µg/mL) | 97.5 | 100 |  | 29.2 (≈ 10.2 µg/mL) | 94.5 | 98.2 | 98.9 | 90 | 96.4 | 97.7 | 4.18 (≈ 1.46 µg/mL) | 
